Inhibition data for 20 compounds are collected here from paper PMC8041284, “Tunable Methacrylamides for Covalent Ligand Directed Release Chemistry” (Journal of the American Chemical Society, 2021).

Where two headings read alike, the source gives them in different places.

This assay concerns the target BTK (Homo sapiens, UniProt Q06187). The assay is described as follows: biochemical.
The mark [1] stands for this setting: read-out: BTK inhibition (%), 0.75 uM BTK, […] probe 3l, 15 min preincubation.

Sequence of BTK (Q06187 402-655 limits assumed): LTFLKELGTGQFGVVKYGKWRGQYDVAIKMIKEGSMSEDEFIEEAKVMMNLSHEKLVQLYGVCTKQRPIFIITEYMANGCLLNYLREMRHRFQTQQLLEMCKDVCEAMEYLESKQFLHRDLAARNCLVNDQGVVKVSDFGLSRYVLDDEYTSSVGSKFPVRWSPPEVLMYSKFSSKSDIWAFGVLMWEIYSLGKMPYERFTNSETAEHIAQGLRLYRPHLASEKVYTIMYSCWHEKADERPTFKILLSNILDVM

For the compound `C[C@]12C[C@@H](O)[C@@H]3C[C@@]1(O[C@@H]1O[C@H](CO)[C@@H](O)[C@H](O)[C@H]1O)[C@]3(COC(=O)c1ccccc1)C(=O)O2` [PCM-0216349], the inhibition at 10 µM under setting [1] is -12.4%.

`CC(C)c1ccc2c(c1O)CC[C@H]1C3=C(CC[C@]21C)C(=O)OC3` [PCM-0216350]: under setting [1], the inhibition at 10 µM amounted to 0.8%.

Take `COc1cc2c(cc1O)C[C@H]1c3c(cc(O)c(OC)c3-2)CCN1C` [PCM-0216351]: the inhibition at 10 µM under setting [1] worked out at 6.9%.

`CC(=O)OCC1=C[C@@H]2OC(=O)C3=CO[C@@H](O[C@@H]4O[C@H](CO)[C@@H](O)[C@H](O)[C@H]4O)[C@H]1[C@@H]32` [PCM-0216352]: the inhibition at 10 µM under setting [1] is 10.8%.

Regarding `COc1cc(-c2coc3cc4c(c(OC)c3c2=O)OCO4)cc(OC)c1OC` [PCM-0216353], the inhibition at 10 µM under setting [1] was -9.3%.

As to `O=C(/C=C/c1ccc(O)c(O)c1/C=C/c1ccc(O)c(O)c1)O[C@H](Cc1ccc(O)c(O)c1)C(=O)O` [PCM-0216354], under setting [1], the inhibition at 10 µM was found to be 30.9%.

Take `C=CC/C(=N\OS(=O)(=O)O)S[C@@H]1O[C@H](CO)[C@@H](O)[C@H](O)[C@H]1O` [PCM-0216356]: the inhibition at 10 µM under setting [1] was 3.9%.

`O=C(O[C@@H]1Cc2c(O)cc(O)cc2O[C@H]1c1cc(O)c(O)c(O)c1)c1cc(O)c(O)c(O)c1` [PCM-0216357]: the inhibition at 10 µM under setting [1] turned out to be 40.9%.

In the case of `O=c1cc(-c2ccc(O[C@@H]3O[C@H](CO)[C@@H](O)[C@H](O)[C@H]3O)cc2)oc2c([C@@H]3O[C@H](CO)[C@@H](O)[C@H](O)[C@H]3O)c(O)cc(O)c12` [PCM-0216358], the inhibition at 10 µM under setting [1] is -3.9%.

With `OC[C@H]1O[C@@](CO)(OC[C@@]2(OC[C@@]3(O[C@H]4O[C@H](CO)[C@@H](O)[C@H](O)[C@H]4O)O[C@H](CO)[C@@H](O)[C@@H]3O)O[C@H](CO)[C@@H](O)[C@@H]2O)[C@@H](O)[C@@H]1O` [PCM-0216359], the inhibition at 10 µM under setting [1] amounted to 7.7%.

Regarding `O=C1C([C@@H]2O[C@H](CO)[C@@H](O)[C@H](O)[C@H]2O)=C(O)/C(=C(O)/C=C/c2ccc(O)cc2)C(=O)C1(O)[C@@H]1O[C@H](CO)[C@@H](O)[C@H](O)[C@H]1O` (some centres unmarked) [PCM-0216360], the inhibition at 10 µM (read-out: BTK inhibition (%)) amounted to 23.9%.

As to `CC(O)[C@H](C)[C@H](N)C(=O)O` (some centres unmarked) [PCM-0216361], the inhibition at 10 µM under setting [1] is -2.6%.

Turning to `COC(=O)C[C@](O)(CCC(C)(C)O)C(=O)O[C@@H]1C(OC)=C[C@]23CCCN2CCc2cc4c(cc2[C@H]13)OCO4` [PCM-0216362], the inhibition at 10 µM (read-out: BTK inhibition (%)) was -7.7%.

As for `O=C(CCc1ccc(O)cc1)c1c(O)cc(O[C@@H]2O[C@H](CO)[C@@H](O)[C@H](O)[C@H]2O)cc1O` [PCM-0216363], the inhibition at 10 µM under setting [1] stood at 17.8%.

For `C=C1[C@H]2C[C@@]3([C@@H]1O)[C@@H](CC2=O)[C@]12[C@@H]4C[C@H]3[C@H]1N(CC)C[C@]4(C)CC[C@@H]2O` [PCM-0216364], the inhibition at 10 µM under setting [1] amounted to 19.3%.

For the compound `CC1=C(CC[C@@H](C)CO[C@@H]2O[C@H](CO)[C@@H](O)[C@H](O)[C@H]2O)O[C@H]2C[C@H]3[C@@H]4CC=C5C[C@@H](O[C@@H]6O[C@H](CO)[C@@H](O[C@@H]7O[C@@H](C)[C@H](O)[C@@H](O)[C@H]7O)[C@H](O)[C@H]6O[C@@H]6O[C@@H](C)[C@H](O)[C@@H](O)[C@H]6O)CC[C@]5(C)[C@H]4CC[C@]3(C)[C@@H]12` [PCM-0216365], the inhibition at 10 µM under setting [1] is -11.9%.

`C[C@@H]1CC[C@@]2(OC1)O[C@H]1C[C@H]3[C@@H]4CC=C5C[C@@H](O[C@@H]6O[C@H](CO)[C@@H](O)[C@H](O)[C@H]6O)CC[C@]5(C)[C@H]4CC[C@]3(C)[C@H]1[C@@H]2C` [PCM-0216366]: the inhibition at 10 µM under setting [1] is -20.1%.

With `COc1cc(O)c(CC=C(C)C)c2c1C(=O)CC(c1ccc(O)cc1)O2` (centres unmarked) [PCM-0216367], under setting [1], the inhibition at 10 µM was determined as 8.5%.

Take `C=C(C)[C@@H]1CCC2=CC(=O)C[C@@H](C)[C@]2(C)C1` [PCM-0216368]: the inhibition at 10 µM under setting [1] is 12.4%.

As to `N#C/C=C1/C=C[C@@H](O)[C@H](O)[C@H]1O[C@@H]1O[C@H](CO)[C@@H](O)[C@H](O)[C@H]1O` [PCM-0216369], the inhibition at 10 µM under setting [1] was -11.6%.
